{"source": "patent US9540649B2", "about": "“Method for opening tight junctions” (The Provost, Fellows and Scholars of the College of the …, priority 2007, dated 2017)", "key": {"IMPDH−/− mice": {"tested_on": "IMPDH−/− mice", "assay": "Electroretinographic analysis of IMPDH−/− mice after claudin-5 suppression and GTP injection", "format": "in vivo", "method": "IMPDH−/− mice that had received a hydrodynamic injection of siRNA targeting claudin-5 were dark-adapted overnight and prepared for electroretinography under dim red light. Pupillary dilation was carried out by installation of 1% cyclopentalate and 2.5% phenylephrine. Animals were anesthetized by intraperitoneal injection of ketamine (2.08 mg per 15 g body weight) and xylazine (0.21 mg per 15 g body weight). Once the animal was anaesthetized, GTP was injected intraperitoneally. The ERG commenced ten minutes after administration of anesthetic. Standardised flashes of light were presented to the mouse in a Ganzfeld bowl to ensure uniform retinal illumination. The ERG responses were recorded simultaneously from both eyes by means of gold wire electrodes (Roland Consulting Gmbh) using Vidisic (Dr Mann Pharma, Germany) as a conducting agent and to maintain corneal hydration. The eye was maintained in a proposed position throughout the examination by means of a small plastic band placed behind the globe. Reference and ground electrodes were positioned subcutaneously, approximately 1 mm from the temporal canthus and anterior to the tail respectively. Body temperature was maintained at 37° C. using a heating device controlled by a rectal temperature probe. Responses were analysed using a RetiScan RetiPort electrophysiology unit (Roland Consulting Gmbh). The protocol was based on that approved by the International Clinical Standards Committee for human electroretinography."}, "C57/Bl6 mice": {"tested_on": "C57/Bl6 mice", "assay": "Behavioural output after TRH injection in claudin-5 suppressed mice", "format": "in vivo", "method": "The protocol of Example 1 was followed to produce transiently claudin-5 suppressed mice. 48 hours post-delivery of siRNA targeting claudin-5 or a non-targeting siRNA, a 200 μl of a solution containing 20 mg/kg Thyrotropin Releasing Hormone (TRH) was injected to the claudin-5 suppressed mice. TRH was injected in the tail vein and immediately, the behavioural output of mice was assessed by filming them in a clear Perspex box."}, "claudin-12": {"tested_on": "claudin-12", "assay": "Claudin-12 staining in brain microvasculature after claudin-12 siRNA", "format": "in vivo, C57/Bl-6 mice", "settings": "48 hours post-injection; vs non-targeting control siRNA"}, "claudin-1": {"tested_on": "claudin-1", "assay": "Western blot analysis of claudin-1 expression after hydrodynamic tail vein delivery of claudin-1 siRNA", "format": "in vivo, C57/Bl-6 mice"}, "occludin [1]": {"tested_on": "occludin", "assay": "Occludin immunohistochemistry in brain microvasculature after occludin siRNA", "format": "in vivo, C57/Bl-6 mice", "settings": "48 hour time-point"}, "occludin [2]": {"tested_on": "occludin", "assay": "Western blot analysis of occludin expression after hydrodynamic tail vein delivery of occludin siRNA", "format": "in vivo, C57/Bl-6 mice"}, "BBB": {"tested_on": "BBB", "assay": "BBB permeability (albumin, immunoglobulin, Hoechst) following suppression of occludin", "format": "in vivo, C57/Bl-6 mice", "settings": "for albumin extravasation, immunohistochemistry in brain vibratome sections: 24 hours post-injection; for passage of mouse immunoglobulins (IgG) into the brain: following suppression of occludin", "from_the_text": "The protocols used were identical to the protocols used in Example 1."}, "[3]": {"settings": "48 hours post injection, vs non-targeting siRNA"}}, "note": "“Also recorded” adds a separate entry of the source.", "data": [{"compound": "Nc1nc2c(ncn2[C@@H]2O[C@H](COP(=O)(O)OP(=O)(O)OP(=O)(O)O)[C@@H](O)[C@H]2O)c(=O)[nH]1", "note": "[GTP]", "values": [{"measurement": "ERG rod response b-wave, left eye", "setting": "IMPDH−/− mice; 11 month old IMPDH−/− mouse, after suppression of claudin-5 and GTP i.p., 2.48 uV before", "result": 121, "unit": "uV"}, {"measurement": "ERG rod response b-wave, right eye", "setting": "IMPDH−/− mice; 11 month old IMPDH−/− mouse, after suppression of claudin-5 and GTP i.p., 50.8 uV before", "result": 193, "unit": "uV"}, {"measurement": "ERG rod tracings", "setting": "IMPDH−/− mice; IMPDH−/− mice, after suppression of claudin-5 and GTP injection", "result": "increase significantly"}]}, {"compound": "NC(=O)[C@@H]1CCCN1C(=O)[C@H](Cc1cnc[nH]1)NC(=O)[C@@H]1CCC(=O)N1", "note": "[TRH, Thyrotropin Releasing Hormone]", "values": [{"measurement": "duration of cessation of mobility relative to non-targeting control mice", "setting": "C57/Bl6 mice; 20 mg/kg TRH tail vein, 48 hours post delivery of siRNA targeting claudin-5", "result": "≤ 5", "unit": "times"}, {"measurement": "mobility / length of time mice remain immobile", "setting": "C57/Bl6 mice; 20 mg/kg TRH, 48 hours post delivery of siRNA targeting claudin-5", "result": "significant cessation of mobility; also recorded: distinct increase in the length of time"}, {"measurement": "delivery of TRH (359.5 Da) across the BBB", "setting": "C57/Bl6 mice; BBB opened with siRNA targeting claudin-5", "result": "significantly enhanced"}]}, {"compound": "CLDN12 siRNA (3): siRNA, target GUAACACGGCCUUCAAUUC; strands GUAACACGGCCUUCAAUUCUU and GAAUUGAAGGCCGUGUUACUU (SEQ ID No. 28, 29) (listed as RNA, chemistry not given here)", "values": [{"measurement": "claudin-12 expression at the microvessels of the brain, staining", "setting": "claudin-12", "result": "decreased"}]}, {"compound": "CLDN12 siRNA (4): siRNA, target GGUCUUUACCUUUGACUAU; strands AAUCUUUACCUUUGACUAUUU and AUAGUCAAAGGUAAAGAUUUU (SEQ ID No. 30, 31) (listed as RNA, chemistry not given here)", "values": [{"measurement": "claudin-12 expression at the microvessels of the brain, staining", "setting": "claudin-12", "result": "decreased"}]}, {"compound": "claudin-1 siRNA (1): siRNA, target GCAAAGCACCGGGCAGAUA; sense AUAGACGGGCCACGAAACGUU, anti-sense CGUUUCGUGGCCCGUCUAUUU (SEQ ID NO: 9, 10) (listed as RNA, chemistry not given here)", "values": [{"measurement": "claudin-1 expression, Western blot", "setting": "claudin-1; 24 hours post-injection", "result": "not evident"}, {"measurement": "claudin-1 expression, Western blot", "setting": "claudin-1; 48 hours post-injection", "result": "significantly decrease claudin-1 expression"}]}, {"compound": "claudin-1 siRNA (2): siRNA, target GAACAGUACUUUGCAGGCA; sense ACGGACGUUUCAUGACAAGUU, anti-sense CUUGUCAUGAAACGUCCGUUU (SEQ ID NO: 11, 12) (listed as RNA, chemistry not given here)", "values": [{"measurement": "claudin-1 expression, Western blot", "setting": "claudin-1; 24 hours post-injection", "result": "decreased"}]}, {"compound": "claudin-1 siRNA (4): siRNA, target UUUCAGGUCUGGCGACAUU; sense UUACAGCGGUCUGGACUUUUU, anti-sense AAAGUCCAGACCGCUGUAAUU (SEQ ID NO: 13, 14) (listed as RNA, chemistry not given here)", "values": [{"measurement": "claudin-1 expression, Western blot", "setting": "claudin-1; 24 hours post-injection", "result": "decreased"}, {"measurement": "claudin-1 expression, Western blot", "setting": "claudin-1; 48 hours post-injection", "result": "suppression was only evident"}]}, {"compound": "occludin siRNA (1): siRNA, target GUUAUAAGAUCUGGAAUGU; sense UGUAAGGUCUAGAAUAUUGUU, anti-sense CAAUAUUCUAGACCUUACAUU (SEQ ID NO: 15, 16) (listed as RNA, chemistry not given here)", "values": [{"measurement": "occludin staining pattern in brain microvasculature", "setting": "occludin [1]", "result": "discontinuous pattern of staining was also evident"}, {"measurement": "occludin expression, Western blot", "setting": "occludin [2]; [3]", "result": "significantly decreased"}]}, {"compound": "occludin siRNA (2): siRNA, target GAUAUUACUUGAUCGUGAU; sense UAGUGCUAGUUCAUUAUAGUU, anti-sense CUAUAAUGAACUAGCACUAUU (SEQ ID NO: 17, 18) (listed as RNA, chemistry not given here)", "values": [{"measurement": "occludin staining pattern in brain microvasculature", "setting": "occludin [1]", "result": "discontinuous pattern of staining was also evident"}, {"measurement": "occludin expression, Western blot", "setting": "occludin [2]; [3]", "result": "significantly decreased"}]}, {"compound": "occludin siRNA (3): siRNA, target CAAAUUAUCGCACAUCAAG; sense GAACUACACGCUAUUAAACUU, anti-sense GUUUAAUAGCGUGUAGUUCUU (SEQ ID NO: 19, 20) (listed as RNA, chemistry not given here)", "values": [{"measurement": "occludin staining pattern in brain microvasculature", "setting": "occludin [1]", "result": "returned to levels similar to those observed in the non-targeting controls"}, {"measurement": "albumin extravasation, immunohistochemistry in brain vibratome sections", "setting": "BBB", "result": "extravascular albumin"}, {"measurement": "albumin extravasation, immunohistochemistry in brain vibratome sections", "setting": "BBB; listed as occludin siRNA 3", "result": "albumin deposition occurred"}, {"measurement": "passage of mouse immunoglobulins (IgG) into the brain", "setting": "BBB", "result": "no extravasation of immunoglobulins"}]}, {"compound": "occludin siRNA (4): siRNA, target AGAUGGAUCGGUAUGAUAA; sense AAUAGUAUGGCUAGGUAGAUU, anti-sense UCUACCUAGCCAUACUAUUUU (SEQ ID NO: 21, 22) (listed as RNA, chemistry not given here)", "values": [{"measurement": "occludin staining pattern in brain microvasculature", "setting": "occludin [1]", "result": "returned to levels similar to those observed in the non-targeting controls"}, {"measurement": "occludin expression, Western blot", "setting": "occludin [2]; 24 hours post injection", "result": "decrease"}, {"measurement": "albumin extravasation, immunohistochemistry in brain vibratome sections", "setting": "BBB", "result": "extravascular albumin"}, {"measurement": "albumin extravasation, immunohistochemistry in brain vibratome sections", "setting": "BBB; listed as occludin siRNA 4", "result": "albumin deposition occurred"}, {"measurement": "passage of mouse immunoglobulins (IgG) into the brain", "setting": "BBB", "result": "no extravasation of immunoglobulins"}]}]}
